The target of assay [1] is human BCL6 BTB domain (Trx-6×His-BCL6) / BCOR-AF633 peptide (Homo sapiens (Human), UniProt P41182). As to the kind of experiment: HTRF assay. As to conditions: 1 nM Trx-6×His-BCL6, 300 nM BCOR-AF633 peptide, 2 hours incubation. Format: binding. (In TR-FRET formats the signal depends on donor and acceptor labels being close together.)
Description: The % inhibition at each concentration was calculated by normalising FRET ratio to the appropriate high (DMSO with all reagents) and low (DMSO without BCL6) controls.
The target of assay [2] is BCL6-NCOR2(SMRT) corepressor protein-protein interaction (Homo sapiens (Human), UniProt P41182). As to the kind of experiment: NanoBRET cell assay. Format: cell-based. As to conditions: for IC50: read-out: NanoBRET cell avg pIC50 (converted). An excerpt: At 20 hr post-transfection, cells were collected, washed with PBS, and exchanged into media containing phenol red-free OptiMEM+4% FBS (Life Technology).

Take `Cn1c(=O)c2c(c3cc(Nc4ccnc(Cl)c4C#N)ccc31)NC(C)(C)CCO2` [Example 1f, 2-chloro-4-((2,2,7-trimethyl-6-oxo-1,2,3,4,6,7-hexahydro-[1,4]oxazepino[2,3-c]quinolin-10-yl)amino)nicotinonitrile]: in assay [1], the “HTRF avg pIC50 (1 nM)” value came to 6.24. Moreover, the IC50 in assay [2] was 5.13 µM.
As to `Cn1c(=O)c2c(c3cc(Nc4nc(N5CC(C)(C)OC(C)(C)C5)ncc4Cl)ccc31)N[C@@H](C1CC1)CCO2` [Example 5k, (R)-10-((5-chloro-2-(2,2,6,6-tetramethylmorpholino)pyrimidin-4-yl)amino)-2-cyclopropyl-7-methyl-1,2,3,4-tetrahydro-[1,4]oxazepino[2,3-c]quinolin-6(7H)-one], the “HTRF avg pIC50 (1 nM)” value in assay [1] amounted to 7.22. The IC50 in assay [2] is 0.112 µM.
The like results for `Cn1c(=O)c2c(c3cc(Nc4nc(N5C6CCC5COC6)ncc4Cl)ccc31)N[C@@H](C1CC1)C(F)(F)CO2` [Example 12v, (S)-10-((2-(3-oxa-8-azabicyclo[3.2.1]octan-8-yl)-5-chloropyrimidin-4-yl)amino)-2-cyclopropyl-3,3-difluoro-7-methyl-1,2,3,4-tetrahydro-[1,4]oxazepino[2,3-c]quinolin-6(7H)-one] were, in that order, 8.86 and 0.00832 µM.
Take `Cn1c(=O)c2c(c3cc(Nc4ccnc(Cl)c4Cl)ccc31)N[C@@H](C1CC1)CCO2` [Example 4c]: the “HTRF avg pIC50 (1 nM)” value in assay [1] turned out to be 6.85. Moreover, in assay [2], the IC50 is 0.708 µM.
In the same order, the values of `C[C@H]1CCOc2c(c3cc(Nc4nc(N5CCC(C(=O)N(C)C)CC5)ncc4Cl)ccc3n(C)c2=O)N1` [Example 5d, (S)-1-(5-chloro-4-((2,7-dimethyl-6-oxo-1,2,3,4,6,7-hexahydro-[1,4]oxazepino[2,3-c]quinolin-10-yl)amino)pyrimidin-2-yl)-N,N-dimethylpiperidine-4-carboxamide] are 6.83 and 1.41 µM.
In the same order, the values of `Cn1c(=O)c2c(c3cc(Nc4nc(N5C6CCC5CS(=O)(=O)C6)ncc4Cl)ccc31)N[C@@H](C1CC1)C(F)(F)CO2` [Example 12w, (S)-10-((5-chloro-2-(3,3-dioxido-3-thia-8-azabicyclo[3.2.1]octan-8-yl)pyrimidin-4-yl)amino)-2-cyclopropyl-3,3-difluoro-7-methyl-1,2,3,4-tetrahydro-[1,4]oxazepino[2,3-c]quinolin-6(7H)-one] are 8.73 and 0.011 µM.
As to `COCC1(C)CCOc2c(c3cc(Nc4ccnc(Cl)c4C#N)ccc3n(C)c2=O)N1` (stereo not drawn) [Example 1g, 2-chloro-4-((2-(methoxymethyl)-2,7-dimethyl-6-oxo-1,2,3,4,6,7-hexahydro-[1,4]oxazepino[2,3-c]quinolin-10-yl)amino)nicotinonitrile], the “HTRF avg pIC50 (1 nM)” value in assay [1] turned out to be 6.30. Moreover, the IC50 in assay [2] is 2.51 µM.
On to `Cn1c(=O)c2c(c3cc(Nc4ccnc(Cl)c4C#N)ccc31)NC(C1CC1)C(F)(F)CO2` (stereo not drawn) [Example 1q, 2-chloro-4-((2-cyclopropyl-3,3-difluoro-7-methyl-6-oxo-1,2,3,4,6,7-hexahydro-[1,4]oxazepino[2,3-c]quinolin-10-yl)amino)nicotinonitrile], for which, in assay [1], the “HTRF avg pIC50 (1 nM)” value turned out to be 8.35. Also, in assay [2], the IC50 is 0.0302 µM.
Turning to `Cn1c(=O)c2c(c3cc(Nc4ccnc(Cl)c4C#N)ccc31)N[C@@H](C1CC1)CCS2` [Example 1s, (R)-2-chloro-4-((2-cyclopropyl-7-methyl-6-oxo-1,2,3,4,6,7-hexahydro-[1,4]thiazepino[2,3-c]quinolin-10-yl)amino)nicotinonitrile], the “HTRF avg pIC50 (1 nM)” value in assay [1] is on record as 7.83. The IC50 in assay [2] is 0.0631 µM.
“(R)-10-((5-chloro-2-((3S,5R)-3-hydroxy-5- methylpiperidin-1-yl)pyrimidin-4-yl)amino)-2-cyclopropyl-7- methyl-1,2,3,4-tetrahydro-[1,4]oxazepino[2,3-c]quinolin-6(7H)-one or (R)-10-((5-chloro-2-((3R,5S)-3-hydroxy-5-methylpiperidin-1- yl)pyrimidin-4-yl)amino)-2-cyclopropyl-7-methyl-1,2,3,4-tetrahydro- [1,4]oxazepino[2,3-c]quinolin-6(7H)-one: formic acid (1:1) [Example 12d]”: the “HTRF avg pIC50 (1 nM)” value in assay [1] was 7.74. In addition, the “NanoBRET cell avg pIC50” value in assay [2] (HEK293T cells co-transfected with BCL6-nanoLuc and NCOR2-HaloTag, 6 hr incubation) is given as 7.06.
As for `C[C@@H]1CN(c2nc(Cl)c(Cl)c(Nc3ccc4c(c3)c3c(c(=O)n4C)OCC[C@H](C4CC4)N3)n2)C[C@H](C)O1` [Example 1r, (R)-2-cyclopropyl-10-((5,6-dichloro-2-((2S,6R)-2,6-dimethylmorpholino)pyrimidin-4-yl)amino)-7-methyl-1,2,3,4-tetrahydro-[1,4]oxazepino[2,3-c]quinolin-6(7H)-one], the “HTRF avg pIC50 (1 nM)” value in assay [1] stood at 6.51. Besides, in assay [2], the IC50 was 1.02 µM.
In the same order, the values of `C[C@H]1COC(=O)c2c(c3cc(Nc4nc(N5C6CCC5CC(F)(F)C6)ncc4Cl)ccc3n(C)c2=O)N1` [Example 8f, (2S)-10-((5-chloro-2-(3,3-difluoro-8-azabicyclo[3.2.1]octan-8-yl)pyrimidin-4-yl)amino)-2,7-dimethyl-2,3-dihydro-[1,4]oxazepino[6,5-c]quinoline-5,6(1H,7H)-dione] are 6.67 and 6.92 µM.
The like results for `Cn1c(=O)c2c(c3cc(Nc4nc(N5CC(F)(F)C[C@@H]5CO)ncc4Cl)ccc31)N[C@@H](C1CC1)C(F)(F)CO2` [Example 12x, (S)-10-((5-chloro-2-((R)-4,4-difluoro-2-(hydroxymethyl)pyrrolidin-1-yl)pyrimidin-4-yl)amino)-2-cyclopropyl-3,3-difluoro-7-methyl-1,2,3,4-tetrahydro-[1,4]oxazepino[2,3-c]quinolin-6(7H)-one] were, in that order, 8.20 and 0.145 µM.
Regarding `Cn1c(=O)c2c(c3cc(Nc4nc(N5C6CCC5CS(=O)(=O)C6)ncc4Cl)ccc31)N[C@@H](C1CC1)CCO2` [Example 12j, (R)-10-((5-chloro-2-(3,3-dioxido-3-thia-8-azabicyclo[3.2.1]octan-8-yl)pyrimidin-4-yl)amino)-2-cyclopropyl-7-methyl-1,2,3,4-tetrahydro-[1,4]oxazepino[2,3-c]quinolin-6(7H)-one], in assay [1], the “HTRF avg pIC50 (1 nM)” value is 7.78. Further, the IC50 in assay [2] was 0.234 µM.
For the compound `O=c1c2c(c3cc(Nc4nc(N5C6CCC5COC6)ncc4Cl)ccc3n1CC1CC(F)(F)C1)N[C@@H](C1CC1)CCO2` [Example 5q, (R)-10-((2-(3-oxa-8-azabicyclo[3.2.1]octan-8-yl)-5-chloropyrimidin-4-yl)amino)-2-cyclopropyl-7-((3,3-difluorocyclobutyl)methyl)-1,2,3,4-tetrahydro-[1,4]oxazepino[2,3-c]quinolin-6(7H)-one], the “HTRF avg pIC50 (1 nM)” value in assay [1] amounted to 7.63. Besides, in assay [2], the IC50 was 0.0977 µM.
`Cn1c(=O)c2c(c3cc(Nc4nc(N5C6COCC5CC(O)C6)ncc4Cl)ccc31)N[C@@H](C1CC1)CCS2` (stereo partly drawn) [Example 15a, (R)-10-((5-chloro-2-((1R,5S,7S)-7-hydroxy-3-oxa-9-azabicyclo[3.3.1]-nonan-9-yl)pyrimidin-4-yl)amino)-2-cyclopropyl-7-methyl-1,2,3,4-tetrahydro-[1,4]thiazepino[2,3-c]quinolin-6(7H)-one]: in assay [1], the “HTRF avg pIC50 (1 nM)” value is 8.12. Moreover, the IC50 in assay [2] is 0.0288 µM.
The like results for `Cn1c(=O)c2c(c3cc(Nc4nc(N5C6COCC5CC(C)(O)C6)ncc4Cl)ccc31)N[C@@H](C1CC1)CCO2` (stereo partly drawn) [Example 12h, (R)-10-((5-chloro-2-((1R,5S,7S)-7-hydroxy-7-methyl-3-oxa-9-azabicyclo[3.3.1]nonan-9-yl)pyrimidin-4-yl)amino)-2-cyclopropyl-7-methyl-1,2,3,4-tetrahydro-[1,4]oxazepino[2,3-c]quinolin-6(7H)-one] were, in that order, 7.93 and 0.145 µM.
For the compound `CC1Nc2c(c(=O)n(C)c3ccc(Nc4nc(N5C[C@H](C)C[C@H](C)C5)ncc4Cl)cc23)C(=O)OC1C` (mixture of isomers) [Example 8p, rac-(2S,3R)-10-((5-chloro-2-((3S,5R)-3,5-dimethylpiperidin-1-yl)pyrimidin-4-yl)amino)-2,3,7-trimethyl-2,3-dihydro-[1,4]oxazepino[6,5-c]quinoline-5,6(1H,7H)-dione or rac-(2S,3S)-10-((5-chloro-2-((3S,5R)-3,5-dimethylpiperidin-1-yl)pyrimidin-4-yl)amino)-2,3,7-trimethyl-2,3-dihydro-[1,4]oxazepino[6,5-c]quinoline-5,6(1H,7H)-dione], the IC50 in assay [1] (HTRF avg pIC50 (1 nM)) is 0.275 µM; in assay [2], 25.7 µM.
In the case of `C[C@H]1CCOc2c(c3cc(Nc4nc(N5CCOCC5)ncc4Cl)ccc3n(C)c2=O)N1` [Example 5h, (S)-10-((5-chloro-2-morpholinopyrimidin-4-yl)amino)-2,7-dimethyl-1,2,3,4-tetrahydro-[1,4]oxazepino[2,3-c]quinolin-6(7H)-one], the “HTRF avg pIC50 (1 nM)” value in assay [1] is listed as 7.01. For the same compound, the IC50 in assay [2] is 1.74 µM.
As for `CCC1CCOc2c(c3cc(Nc4ccnc(Cl)c4C#N)ccc3n(C)c2=O)N1` (stereo not drawn) [Example 1c, 2-chloro-4-((2-ethyl-7-methyl-6-oxo-1,2,3,4,6,7-hexahydro-[1,4]oxazepino[2,3-c]quinolin-10-yl)amino)nicotinonitrile], the “HTRF avg pIC50 (1 nM)” value in assay [1] came out at 6.32. The IC50 in assay [2] was 8.71 µM.
Consider `Cn1c(=O)c2c(c3cc(Nc4nc(N5C6COCC5CC(O)C6)ncc4Cl)ccc31)N[C@@H](C1CC1)CCO2` (stereo partly drawn) [Example 5n, (R)-10-((5-chloro-2-((1R,5S,7S)-7-hydroxy-3-oxa-9-azabicyclo[3.3.1]nonan-9-yl)pyrimidin-4-yl)amino)-2-cyclopropyl-7-methyl-1,2,3,4-tetrahydro-[1,4]oxazepino[2,3-c]quinolin-6(7H)-one], for which, in assay [1], the “HTRF avg pIC50 (1 nM)” value is listed as 7.97. Also, the IC50 in assay [2] is 0.0363 µM.
